# From ChEMBL document CHEMBL2311425, “Histone deacetylase (HDAC) inhibitors with a novel connecting unit linker region reveal a selectivity profile for HDAC4 and HDAC5 with improved activity against chemoresistant cancer cells” (J Med Chem, 2013)
# Key:
# [1] = tested on: MDA-MB-231; assay: Potentiation of 10 uM cisplatin-induced toxicity in 1 uM cisplatin resistant human MDA-MB-231 cells at 1.5 uM pretreated for 48 hrs followed by 1 uM cisplatin treatment by MTT assay; assay type: functional
# [2] = tested on: MDA-MB-231; assay: Potentiation of 10 uM cisplatin-induced toxicity in 1 uM cisplatin resistant human MDA-MB-231 cells at 1 uM pretreated for 48 hrs followed by 1 uM cisplatin treatment by MTT assay; assay type: functional
# [3] = tested on: A2780; assay: Potentiation of 1 uM cisplatin-induced toxicity in 5 uM cisplatin resistant human A2780 cells at 1 uM pretreated for 48 hrs followed by 5 uM cisplatin treatment by MTT assay; assay type: functional
# [4] = tested on: A2780; assay: Potentiation of 1 uM cisplatin-induced toxicity in 5 uM cisplatin resistant human A2780 cells at 0.25 uM pretreated for 48 hrs followed by 5 uM cisplatin treatment by MTT assay; assay type: functional
# [5] = tested on: MDA-MB-231; assay: Potentiation of 5 uM cisplatin-induced toxicity in 1 uM cisplatin resistant human MDA-MB-231 cells at 1.5 uM pretreated for 48 hrs followed by 1 uM cisplatin treatment by MTT assay; assay type: functional
# [6] = target: Histone deacetylase; assay: Inhibition of HDAC in cisplatin sensitive human KYSE-510 cells after 18 hrs by fluorescence assay; assay type: cell-based
# [7] = target: Histone deacetylase; assay: Inhibition of HDAC in cisplatin resistant human MDA-MB-231 cells after 18 hrs by fluorescence assay; assay type: cell-based
# [8] = tested on: KYSE-510; assay: Potentiation of 8 uM cisplatin-induced toxicity in 0.5 uM cisplatin resistant human KYSE-510 cells at 1 uM pretreated for 48 hrs followed by 0.5 uM cisplatin treatment by MTT assay; assay type: functional
# [9] = tested on: KYSE-510; assay: Potentiation of 3.16 uM cisplatin-induced toxicity in 0.5 uM cisplatin resistant human KYSE-510 cells at 0.5 uM pretreated for 48 hrs followed by 0.5 uM cisplatin treatment by MTT assay; assay type: functional
# [10] = tested on: KYSE-510; assay: Potentiation of 1 uM cisplatin-induced toxicity in 0.5 uM cisplatin resistant human KYSE-510 cells at 0.25 uM pretreated for 48 hrs followed by 0.5 uM cisplatin treatment by MTT assay; assay type: functional
smiles,measurement,setting,value
Cc1cc(C)cc(C(=O)NOCCCCCC(=O)NO)c1,Activity,[1],Dose-dependent effect
same,fractional inhibitory concentration index (FICI),[1],0.79
same,Activity,[2],Dose-dependent effect
same,fractional inhibitory concentration index (FICI),[2],0.85
same,Activity,[3],Dose-dependent effect
same,fractional inhibitory concentration index (FICI),[3],0.82
same,Activity,[4],Dose-dependent effect
same,Activity,[5],Dose-dependent effect
same,fractional inhibitory concentration index (FICI),[5],<0.2
same,IC50,[6],1000 nM
same,IC50,[7],410 nM
same,Activity,[8],Dose-dependent effect
same,fractional inhibitory concentration index (FICI),[8],0.18
same,Activity,[9],Dose-dependent effect
same,fractional inhibitory concentration index (FICI),[9],0.09
same,Activity,[10],Dose-dependent effect
same,fractional inhibitory concentration index (FICI),[10],0.13
